Assay results reported in PMC11315827 (Drugs in R&D, 2024).
Several values for one entry are separate records, joined by “and”; a condition that tells them apart may be missing. Identical values can stand only once.

Columns and labels:
[1] = biological target: BTK (Homo sapiens, UniProt Q06187); conditions: "reported as"; cited from earlier work
[2] = test system: Ramos cell expression of CD69 (BTK signaling); experiment: cells; conditions: Homo sapiens, 18 h, read-out: apparent IC50 (CD69 expression)
[3] = Nonhuman primate PK study, plasma and CSF; conditions: for unbound partition coefficient Kp,uu CSF: based on plasma free fractions; for Cmax / half-life: male, cynomolgus monkey, in vivo, po; for Cmax: plasma Cmax
[4] = biological target: BLK (Homo sapiens, UniProt P51451); experiment: Kinase screening assays
[5] = biological target: T1, BMX (Homo sapiens, UniProt P51813); experiment: Kinase screening assays
T1 sequence (P51813 1-675): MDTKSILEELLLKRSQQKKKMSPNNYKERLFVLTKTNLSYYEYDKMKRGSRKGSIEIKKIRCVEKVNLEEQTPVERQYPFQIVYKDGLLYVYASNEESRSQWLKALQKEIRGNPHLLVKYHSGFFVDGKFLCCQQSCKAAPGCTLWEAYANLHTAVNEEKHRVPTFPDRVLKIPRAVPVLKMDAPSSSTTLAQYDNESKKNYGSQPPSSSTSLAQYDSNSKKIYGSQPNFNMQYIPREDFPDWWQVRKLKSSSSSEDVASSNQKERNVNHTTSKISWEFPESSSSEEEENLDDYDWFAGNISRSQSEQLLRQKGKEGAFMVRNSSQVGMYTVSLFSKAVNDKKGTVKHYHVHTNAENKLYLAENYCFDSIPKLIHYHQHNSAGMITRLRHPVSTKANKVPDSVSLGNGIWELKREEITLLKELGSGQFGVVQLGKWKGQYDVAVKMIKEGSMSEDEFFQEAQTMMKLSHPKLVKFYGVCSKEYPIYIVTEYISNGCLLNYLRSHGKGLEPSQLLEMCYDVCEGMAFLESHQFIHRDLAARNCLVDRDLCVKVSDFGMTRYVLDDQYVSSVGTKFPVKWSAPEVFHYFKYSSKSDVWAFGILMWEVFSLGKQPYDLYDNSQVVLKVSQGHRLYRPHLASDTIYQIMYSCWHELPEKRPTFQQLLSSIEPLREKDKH

[6] = biological target: T2, TXK (Homo sapiens, UniProt P42681); experiment: Kinase screening assays
T2 sequence (P42681 1-527): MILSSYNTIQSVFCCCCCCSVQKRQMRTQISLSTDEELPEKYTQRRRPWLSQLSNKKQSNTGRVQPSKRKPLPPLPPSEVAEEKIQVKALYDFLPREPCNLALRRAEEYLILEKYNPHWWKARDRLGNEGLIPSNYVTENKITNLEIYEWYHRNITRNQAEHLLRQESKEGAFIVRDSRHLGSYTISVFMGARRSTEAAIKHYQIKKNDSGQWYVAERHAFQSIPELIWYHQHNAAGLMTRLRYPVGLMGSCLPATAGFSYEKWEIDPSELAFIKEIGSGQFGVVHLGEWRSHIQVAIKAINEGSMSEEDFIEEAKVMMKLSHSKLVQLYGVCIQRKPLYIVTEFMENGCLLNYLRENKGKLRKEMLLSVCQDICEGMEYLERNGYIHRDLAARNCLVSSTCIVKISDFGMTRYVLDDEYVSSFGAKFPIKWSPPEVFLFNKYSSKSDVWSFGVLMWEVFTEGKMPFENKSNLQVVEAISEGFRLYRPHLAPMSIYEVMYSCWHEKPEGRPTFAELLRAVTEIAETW

Sequence of BTK (Q06187 whole entry): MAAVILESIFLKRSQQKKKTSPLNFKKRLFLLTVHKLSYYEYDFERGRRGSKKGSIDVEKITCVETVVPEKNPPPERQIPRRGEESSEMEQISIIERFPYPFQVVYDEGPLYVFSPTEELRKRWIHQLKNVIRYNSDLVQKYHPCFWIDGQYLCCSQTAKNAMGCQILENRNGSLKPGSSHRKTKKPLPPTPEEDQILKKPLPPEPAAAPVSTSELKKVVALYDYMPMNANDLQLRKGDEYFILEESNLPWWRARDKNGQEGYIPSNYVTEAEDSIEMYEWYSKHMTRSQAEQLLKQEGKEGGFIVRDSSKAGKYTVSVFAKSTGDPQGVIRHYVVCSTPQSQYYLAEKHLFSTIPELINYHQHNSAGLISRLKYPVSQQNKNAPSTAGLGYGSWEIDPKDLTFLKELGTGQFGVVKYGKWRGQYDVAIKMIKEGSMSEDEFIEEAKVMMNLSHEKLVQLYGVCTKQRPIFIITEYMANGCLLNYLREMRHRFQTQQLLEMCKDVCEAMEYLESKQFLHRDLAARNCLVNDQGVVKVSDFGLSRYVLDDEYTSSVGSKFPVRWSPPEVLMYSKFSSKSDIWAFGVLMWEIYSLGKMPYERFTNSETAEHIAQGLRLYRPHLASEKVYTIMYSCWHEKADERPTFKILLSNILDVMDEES
Sequence of BLK (P51451 whole entry, species assumed): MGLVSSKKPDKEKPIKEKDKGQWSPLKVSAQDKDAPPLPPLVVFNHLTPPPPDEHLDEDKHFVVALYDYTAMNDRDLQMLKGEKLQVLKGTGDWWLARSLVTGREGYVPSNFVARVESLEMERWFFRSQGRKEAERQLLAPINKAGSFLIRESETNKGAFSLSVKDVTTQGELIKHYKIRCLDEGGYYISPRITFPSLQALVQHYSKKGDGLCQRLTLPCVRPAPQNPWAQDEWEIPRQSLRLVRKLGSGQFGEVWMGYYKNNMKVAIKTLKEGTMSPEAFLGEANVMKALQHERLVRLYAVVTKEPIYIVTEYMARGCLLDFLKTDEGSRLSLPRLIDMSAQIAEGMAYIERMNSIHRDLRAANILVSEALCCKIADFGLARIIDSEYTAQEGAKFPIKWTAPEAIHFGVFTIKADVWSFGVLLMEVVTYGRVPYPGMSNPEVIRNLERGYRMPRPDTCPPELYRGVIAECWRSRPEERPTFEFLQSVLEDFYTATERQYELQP

| IC50 [2] [nM] | unbound partition coefficient Kp,uu CSF [3] | Cmax ([3]; 10 mg/kg, oral 10 mg/kg) | terminal t1/2 for elimination ([3]; plasma, oral 10 mg/kg) | CSF Cmax ([3]; CSF, oral 10 mg/kg) [nM] | CSF exposure (Cmax) ([3]; CSF, oral 10 mg/kg, 10 mg/kg) [ng/mL] | half-life ([3]; 10 mg/kg) [h] | IC50 [4] [nM] | IC50 [5] [nM] | IC50 [6] [nM] | SMILES | dissociation rate [1] [s⁻¹] |
| --- | --- | --- | --- | --- | --- | --- | --- | --- | --- | --- | --- |
| 19.8 | 0.147 | 553 ng/mL and 853 nM | slightly prolonged |  |  |  |  |  |  | C[C@H]1CN(C2COC2)CCN1c1ccc(Nc2cc(-c3ccnc(N4CCn5c(cc6c5CC(C)(C)C6)C4=O)c3CO)cn(C)c2=O)nc1 [Fenebrutinib] | 1.52e-05 |
|  | 0.397 | 103 ng/mL and 226 nM |  | 9.6 | 4.4 | ~4 | ≤ 4 | ≤ 4 | ≤ 4 | C=CC(=O)N1CCC[C@@H](n2c(=O)n(-c3ccc(Oc4ccccc4)cc3)c3c(N)nccc32)C1 [Tolebrutinib] |  |
|  | 0.131 | 287 ng/mL and 669 nM |  |  |  | ~4 |  |  |  | C=CC(=O)N1CCC(CNc2ncnc(N)c2-c2ccc(Oc3ccccc3)cc2)CC1 [Evobrutinib] |  |
